In one assay the test system is in vitro Golgi transport. It is filed as biochemical, CHO cells.
Assay [1] deals with glycosylation of VSV-g protein. The class given is biochemical, CHO cells.
In assay [2] the test system is glycosylation of endogenous VSV-g protein. It is filed as biochemical, CHO cells.
A further assay has as its system Golgi membranes. As to the kind of experiment: Membrane integrity: retention of a preformed UDP-[3H]-GlcNAc gradient. It is filed as biochemical, CHO cells. To be noted: Fig. 5 A; MAS 3.3 µM, ARFp13 43 µM, NEM 1 mM, SDS 50 µM; 10 min with inhibitors.
In assay [3] the test system is beta-COP binding to isolated Golgi membranes. The following applies: 25 µM MAS; cited from earlier work.
In assay [4] the test system is p200 binding to rat liver Golgi membranes. To be noted: 100 µM MAS; cited from earlier work.
Assay [5] deals with release of vesicles from the TGN of PC12 cells. The following applies: cited from earlier work.

Data on four compounds can be found in publication PMC2120305 (The Journal of Cell Biology, 1994).

Several values for one entry are separate records, joined by “and”; a condition that tells them apart may be missing. Identical values can stand only once. Like-named read-outs stand apart in the source and are kept apart here.

On to Mastoparan, for which, in the assay with in vitro Golgi transport, the “IC50 with normal versus ARF-depleted cytosol” value was “the same”. Moreover, the IC50 came to 0.75 µM with in vitro Golgi transport (read-out: IC50 for inhibition of in vitro Golgi transport); 2.2 µM with in vitro Golgi transport (read-out: IC50 in vitro transport, addition of BFA 0 µM); 2 µM in the assay on in vitro Golgi transport (read-out: IC50 in vitro transport, addition of BFA 200 µM); 1.4 µM in the assay with in vitro Golgi transport (read-out: IC50 in vitro transport, addition of GTP 0 µM); 1.3 µM in the assay with in vitro Golgi transport (read-out: IC50 in vitro transport, addition of GTP 50 µM); 1.3 µM in the assay on in vitro Golgi transport (read-out: IC50 in vitro transport, mock-treated membranes). In addition, the IC50 with in vitro Golgi transport (read-out: IC50 in vitro transport, pertussis toxin treated membranes) was 1.3 µM; in assay [1] (read-out: IC50, peptide added before glycosylation), 2.8 µM and 1.9 µM. The “Glycosylation of VSV-g protein after its delivery to the acceptor compartment” value in assay [1] is “subse- quent glycosylation is inhibited”. Moreover, the “Effect on glycosylation of VSV-g protein” value in assay [2] is reported as “similarly inhibitory effect”. Also, the “Integrity of the membranes” value with Golgi membranes is listed as “near complete loss of membrane integrity”. For the same compound, the “Increase in the amount of beta-COP bound to isolated Golgi membranes” value in assay [3] is recorded as 10 fold. Besides, the “Stimulation of p200 binding to rat liver Golgi membranes in vitro” value in assay [4] was “more than sevenfold”. Moreover, the “Inhibition of release of vesicles from the TGN” value in assay [5] is ~30%.
For the compound Pertussis toxin, in assay [5], the “Stimulation of TGN vesicle release after pertussis toxin treatment” value was 1.6- 1.7 fold.
As to `CCCCCCCCCCCCOS(=O)(=O)[O-].[Na+]` [SDS], in assay [2], the “Effect on glycosylation of VSV-g protein” value is on record as “similarly inhibitory effect”. Further, the “Integrity of the membranes” value with Golgi membranes is “only partially compromised”.
`CCN1C(=O)C=CC1=O` [NEM]: in assay [1], the “Glycosylation of VSV-g protein after its delivery to the acceptor compartment” value is recorded as “subse- quent glycosylation is inhibited”. In addition, the “Effect on glycosylation of VSV-g protein” value in assay [2] is “similarly inhibitory effect”. Besides, the “Integrity of the membranes” value in the assay on Golgi membranes was “near complete loss of membrane integrity”.

A word on the IC50: it is the concentration at which inhibition is half-maximal.
